The source of these data is patent publication US8614218B2, “Fused bicyclic pyrimidines” (Bayer Intellectual Property GmbH, priority 2007, dated 2013).

SMILES strings stand for the structures.

The subject of this experiment is A549 cells. In words: Cellular proliferation/cytotoxicity assay (Alamar Blue), A549. The note with it: Homo sapiens, 72 h, Alamar Blue (Resazurin), read-out: Anti-proliterative/Cytotoxic activity (A549 cells). Format: cell-based. Here is the method: Cellular Proliferation/Cytotoxicity Assay:
The anti-proliferative activity of the compounds as described herein, is evaluated using the OvCAR3, HCT116 and A549 cell lines and the Alamar Blue (Resazurin) cell viability assay (O'Brien et al. Eur J Biochem 267, 5421-5426, 2000). Resazurin is reduced to the fluorescent resorufin by cellular dehydrogenase activity, correlating with viable, proliferating cells. Test compounds are dissolved as 10 mM solutions in DMSO and subsequently diluted. Cells like HCT116 or A549 cells were seeded into 96 well flat bottom plates at a density of 10000 cells/well (OvCAR3 cells), 1000 cells/well (HCT116 cells) or 2000 cells/well (A549 cells) in a volume of 200 μl/well. 24 hours after seeding, 1 μl each of the compound dilutions are added into each well of the 96 well plates. Each compound dilution is tested as at least as duplicates. Wells containing untreated control cells were filled with 200 μl DMEM (Dulbecco's Modified Eagle Medium) containing 0.5 vol % v:v DMSO. The cells are then incubated with the substances for 72 h at 37° C. in a humidified atmosphere containing 5 vol % CO2. To determine the viability of the cells, 20 μl of a Resazurin solution (90 mg/l) are added. After 4 h incubation at 37° C., the fluorescence is measured by extinction at λ=544 nm and an emission of λ=590 nm (Wallac Victor2; Perkin Elmer, USA). For the calculation of the cell viability, the emission value from untreated cells is set as 100% viability and the fluorescence intensity of treated cells are set in relation to the values of untreated cells. Viabilities are expressed as % values. The corresponding IC50 values of the compounds for cytotoxic activity are determined from the concentration-effect curves by means of non-linear regression. The analysis of the data is performed using a biostatistical program (GraphPad Prism, USA).
Representative IC50 values for anti-proliferative/cytotoxic potency determined in the aforementioned assay follow from the following table, in which the numbers of the compound correspond to the numbers of the examples.
Consider `Cc1nc2nc(-c3ccc(CN4CCC(c5n[nH]c(-c6nccs6)n5)CC4)cc3)c(-c3ccccc3)cn2n1` [Example 43, 2-Methyl-6-phenyl-5-[4-({4-[5-(1,3-thiazol-2-yl)-1H-1,2,4-triazol-3-yl]piperidin-1-yl}methyl)phenyl][1,2,4]triazolo[1,5-a]pyrimidine], for which the IC50 is less than 10 µM.
Then `Cc1cc2nc(-c3ccc(CN4CCC(c5n[nH]c(-c6ccccn6)n5)CC4)cc3)c(-c3ccccc3)cn2n1` [Example 44, 2-Methyl-6-phenyl-5-(4-{[4-(5-pyridin-2-yl-1H-1,2,4-triazol-3-yl)piperidin-1-yl]methyl}phenyl)pyrazolo[1,5-a]pyrimidine], with more than 10 µM.
With `Cc1nc2nc(-c3ccc(CN4CCC(c5cc(-c6ccccn6)n[nH]5)CC4)cc3)c(-c3ccccc3)cn2n1` [Example 46, 2-Methyl-6-phenyl-5-(4-{[4-(3-pyridin-2-yl-1H-pyrazol-5-yl)piperidin-1-yl]methyl}phenyl)[1,2,4]triazolo[1,5-a]pyrimidine], the IC50 is more than 10 µM.
`Cc1nc2nc(-c3ccc(CN4CCC(c5n[nH]c(-c6ccncc6)n5)CC4)cc3)c(-c3ccccc3)cn2n1` [Example 47, 2-Methyl-6-phenyl-5-(4-{[4-(5-pyridin-4-yl-1H-1,2,4-triazol-3-yl)piperidin-1-yl]methyl}phenyl)[1,2,4]triazolo[1,5-a]pyrimidine]: the IC50 was less than 10 µM.
As for `c1ccc(-c2cn3nc(C4CC4)cc3nc2-c2ccc(CN3CCC(c4n[nH]c(-c5ccccn5)n4)CC3)cc2)cc1` [Example 48, 2-Cyclopropyl-6-phenyl-5-(4-{[4-(5-pyridin-2-yl-1H-1,2,4-triazol-3-yl)piperidin-1-yl]methyl}phenyl)pyrazolo[1,5-a]pyrimidine], the figure is less than 10 µM.
As for `c1ccc(-c2nc(C3CCN(Cc4ccc(-c5nc6nccn6cc5-c5ccsc5)cc4)CC3)n[nH]2)nc1` [Example 51, 7-(4-{[4-(5-Pyridin-2-yl-1H-1,2,4-triazol-3-yl)piperidin-1-yl]methyl}phenyl)-6-(3-thienyl)imidazo[1,2-a]pyrimidine], the figure is less than 10 µM; as for `Brc1nc2nc(-c3ccc(CN4CCC(c5n[nH]c(-c6ccccn6)n5)CC4)cc3)c(-c3ccccc3)cn2n1` [Example 52, 2-Bromo-6-phenyl-5-(4-{[4-(5-pyridin-2-yl-1H-1,2,4-triazol-3-yl)piperidin-1-yl]methyl}phenyl)[1,2,4]triazolo[1,5-a]pyrimidine], less than 10 µM.
As for `C#Cc1nc2nc(-c3ccc(CN4CCC(c5n[nH]c(-c6ccccn6)n5)CC4)cc3)c(-c3ccccc3)cn2n1` [Example 53, 2-Ethynyl-6-phenyl-5-(4-{[4-(5-pyridin-2-yl-1H-1,2,4-triazol-3-yl)piperidin-1-yl]methyl}phenyl)[1,2,4]triazolo[1,5-a]pyrimidine], the figure is less than 10 µM.
On to `Cc1nc2nc(-c3ccc(CN4CCC(c5n[nH]c(-c6ccccn6)n5)CC4)cc3)c(-c3ccsc3)cn2n1` [Example 54, 2-Methyl-5-(4-{[4-(5-pyridin-2-yl-1H-1,2,4-triazol-3-yl)piperidin-1-yl]methyl}phenyl)-6-(3-thienyl)[1,2,4]triazolo[1,5-a]pyrimidine], for which the IC50 is less than 10 µM.
Then `CN(C)c1nc2nc(-c3ccc(CN4CCC(c5n[nH]c(-c6ccccn6)n5)CC4)cc3)c(-c3ccccc3)cn2n1` [Example 62, N,N-Dimethyl-6-phenyl-5-(4-{[4-(5-pyridin-2-yl-1H-1,2,4-triazol-3-yl)piperidin-1-yl]methyl}phenyl)[1,2,4]triazolo[1,5-a]pyrimidin-2-amine], with less than 10 µM; and `FC(F)(F)c1nc2nc(-c3ccc(CN4CCC(c5n[nH]c(-c6ccccn6)n5)CC4)cc3)c(-c3ccccc3)cn2n1` [Example 63, 6-Phenyl-5-(4-{[4-(5-pyridin-2-yl-1H-1,2,4-triazol-3-yl)piperidin-1-yl]methyl}phenyl)-2-(trifluoromethyl)[1,2,4]triazolo[1,5-a]pyrimidine], with more than 10 µM; and `Cc1nc2nc(-c3ccc(CN4CCC(c5n[nH]c(-c6ccccn6)n5)CC4)cc3)c(-c3ccccc3)c(N(C)C)n2n1` [Example 64, N,N,2-Trimethyl-6-phenyl-5-(4-{[4-(5-pyridin-2-yl-1H-1,2,4-triazol-3-yl)piperidin-1-yl]methyl}phenyl)[1,2,4]triazolo[1,5-a]pyrimidin-7-amine], with less than 10 µM.
With `CNc1nc2nc(-c3ccc(CN4CCC(c5n[nH]c(-c6ccccn6)n5)CC4)cc3)c(-c3ccccc3)cn2n1` [Example 65, N-Methyl-6-phenyl-5-(4-{[4-(5-pyridin-2-yl-1H-1,2,4-triazol-3-yl)piperidin-1-yl]methyl}phenyl)[1,2,4]triazolo[1,5-a]pyrimidin-2-amine], the IC50 is less than 10 µM.
Then `COc1nc2nc(-c3ccc(CN4CCC(c5n[nH]c(-c6ccccn6)n5)CC4)cc3)c(-c3ccccc3)cn2n1` [Example 66, 2-Methoxy-6-phenyl-5-(4-{[4-(5-pyridin-2-yl-1H-1,2,4-triazol-3-yl)piperidin-1-yl]methyl}phenyl)[1,2,4]triazolo[1,5-a]pyrimidine], with less than 10 µM; and `Nc1nc2nc(-c3ccc(CN4CCC(c5n[nH]c(-c6ccccn6)n5)CC4)cc3)c(-c3ccccc3)cn2n1` [Example 67, 6-Phenyl-5-(4-{[4-(5-pyridin-2-yl-1H-1,2,4-triazol-3-yl)piperidin-1-yl]methyl}phenyl)[1,2,4]triazolo[1,5-a]pyrimidin-2-amine], with less than 10 µM.
Then `c1ccc(-c2cn3ccnc3nc2-c2ccc(CN3CCC(c4nc(-c5ccc[nH]5)n[nH]4)CC3)cc2)cc1` [Example 68, 6-Phenyl-7-[4-({4-[3-(1H-pyrrol-2-yl)-1H-1,2,4-triazol-5-yl]piperidin-1-yl}methyl)phenyl]imidazo[1,2-a]pyrimidine], with less than 10 µM.
Turning to `c1ccc(-c2cn3nccc3nc2-c2ccc(CN3CCC(c4nc(-c5ncccn5)n[nH]4)CC3)cc2)cc1` [Example 69, 6-Phenyl-5-(4-{[4-(3-pyrimidin-2-yl-1H-1,2,4-triazol-5-yl)piperidin-1-yl]methyl}phenyl)pyrazolo[1,5-a]pyrimidine], the IC50 was more than 10 µM.
With `c1ccc(-c2cn3nccc3nc2-c2ccc(CN3CCC(c4nc(-c5nccs5)n[nH]4)CC3)cc2)cc1` [Example 70, 6-Phenyl-5-[4-({4-[3-(1,3-thiazol-2-yl)-1H-1,2,4-triazol-5-yl]piperidin-1-yl}methyl)phenyl]pyrazolo[1,5-a]pyrimidine], the IC50 was more than 10 µM.
As for `c1ccc(-c2cn3nccc3nc2-c2ccc(CN3CCC(c4nc(-c5ccncc5)n[nH]4)CC3)cc2)cc1` [Example 71, 6-Phenyl-5-(4-{[4-(3-pyridin-4-yl-1H-1,2,4-triazol-5-yl)piperidin-1-yl]methyl}phenyl)pyrazolo[1,5-a]pyrimidine], the IC50 was more than 10 µM.
For the compound `c1ccc(-c2cn3nccc3nc2-c2ccc(CN3CCC(c4nc(-c5ccc[nH]5)n[nH]4)CC3)cc2)cc1` [Example 72, 6-Phenyl-5-[4-({4-[3-(1H-pyrrol-2-yl)-1H-1,2,4-triazol-5-yl]piperidin-1-yl}methyl)phenyl]pyrazolo[1,5-a]pyrimidine], the IC50 was less than 10 µM.
As for `Cc1nc2nc(-c3ccc(CN4CCC(c5nc(-c6ccc[nH]6)n[nH]5)CC4)cc3)c(-c3ccccc3)cn2n1` [Example 73, 2-Methyl-6-phenyl-5-[4-({4-[3-(1H-pyrrol-2-yl)-1H-1,2,4-triazol-5-yl]piperidin-1-yl}methyl)phenyl][1,2,4]triazolo[1,5-a]pyrimidine], the figure is less than 10 µM.
